The results in this text go back to US9102688B2, “Sulfonaminoquinoline hepcidin antagonists” (Vifor (International) AG, priority 2011, dated 2015).

This experiment addresses T1, human ferroportin (Homo sapiens, UniProt Q9NP59).
T1 construct: expressed in transfected cells
T1 sequence (Q9NP59 1-571): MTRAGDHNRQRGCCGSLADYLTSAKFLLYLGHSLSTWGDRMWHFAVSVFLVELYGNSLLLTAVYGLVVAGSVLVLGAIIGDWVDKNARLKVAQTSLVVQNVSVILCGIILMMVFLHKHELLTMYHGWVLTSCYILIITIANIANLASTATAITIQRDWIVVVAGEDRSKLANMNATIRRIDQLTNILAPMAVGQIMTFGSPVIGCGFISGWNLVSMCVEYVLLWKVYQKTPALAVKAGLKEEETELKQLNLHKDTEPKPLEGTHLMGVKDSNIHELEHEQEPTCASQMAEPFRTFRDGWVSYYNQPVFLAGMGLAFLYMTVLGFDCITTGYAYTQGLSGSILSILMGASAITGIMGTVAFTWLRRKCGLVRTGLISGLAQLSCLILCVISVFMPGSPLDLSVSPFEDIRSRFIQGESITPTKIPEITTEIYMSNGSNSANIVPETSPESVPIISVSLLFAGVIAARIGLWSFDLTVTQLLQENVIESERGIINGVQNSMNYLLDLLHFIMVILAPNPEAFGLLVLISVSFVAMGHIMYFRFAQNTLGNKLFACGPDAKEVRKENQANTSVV
As to the kind of experiment: ferroportin internalization assay (inhibition of hepcidin-induced internalization of Fpn). It counts as cell-based. Particulars: MDCK-FPN-HaloTag cells, 100 nM hepcidin, overnight incubation; concentration range from 0.04 to 40 μM. As to the method:
The hepcidin-antagonistic action of the sulfonaminoquinoline compounds of the present invention was determined by means of the “ferroportin internalization assay” described in the following.
Organic compounds of low molecular weight which counteract the biological actions of hepcidin on its receptor, the iron exporter ferroportin (Fpn), were identified on the basis of their ability to inhibit hepcidin-induced internalization of Fpn in living cells. For this purpose, a stable cell line (Madin-Darby canine kidney, MDCK) was produced which constitutively expresses human ferroportin fused recombinantly at its C terminus with a fluorescent reporter protein (HaloTag®, Promega Corp.). The internalization of Fpn was monitored by labelling these cells with fluorescent ligands (HaloTag®-TMR, tetramethylrhodamine) which join covalently on to the HaloTag reporter gene fused with the Fpn. […] Optimized image analysis algorithms were used to ascertain the cell surface and to quantify the corresponding membrane fluorescence associated with the Fpn-HaloTag fusion protein. This assay allows a quantitative image-based analysis in order to quickly evaluate compounds which can block hepcidin-induced internalization of Fpn. This assay is a direct in vitro pendant of the in vivo action mechanism proposed for medicament candidates and is therefore suitable as an initial assay with a high throughput for identifying compounds which counteract the action of hepcidin on its receptor ferroportin.
• 7,500 cells per well (MDCK-FPN-HaloTag) were transinoculated in 50 μl of DMEM medium (Dulbeccos Modified Eagle Medium with 10% foetal bovine serum (FBS), which contained 1% penicillin, 1% streptomycin and 450 μg/ml of G-418) in microtitre plates with 384 wells (384 Cell carrier plates, Perkin Elmer, cat. no. 6007430), followed by incubation overnight at 37° C./5% CO2. • The volume of the medium was reduced to 10 μl, and 10 μl of 5 μM HaloTag-TMR ligands (Promega, cat. no. G 8251) were added in DMEM medium in order to stain the Fpn-HaloTag fusion protein. • 15 min incubation at 37° C./5% CO2 • The HaloTag-TMR ligand was removed and the cells were washed with fresh DMEM medium and the volume was reduced to 20 μl of DMEM medium. • 3 μl per well of a solution of the test compound (dissolved DMSO) were added ([…]). • 7 μl of […] hepcidin (Peptides International, cat. no. PLP-4392-s, 100 μM stock solution diluted in water in DMEM medium) were added per well up to a final hepcidin concentration of 100 nM. • The cells were incubated overnight at 37° C./5% CO2. • The cells were fixed by adding paraformaldehyde (PFA, Electron Microscopy Sciences, cat. no. 15710-S) directly to the cells up to a final concentration of 4%, followed by incubation at room temperature for 15-20 minutes. • The PFA solution was removed and the cells were washed with PBS (phosphate-buffered saline solution), in each case 30 μl remaining in the plate. • 20 μl of Draq5 (Biostatus, cat. no. DR 51000) were added up to a final concentration of 2.5 μM in order to stain the cell nuclei, and the plates were sealed with a foil plate seal. • The plates were analysed with the Opera Plate Imager (Opera Confocal Plate Imager, Perkin Elmer) with 7 images per well; 440 ms exposure time per image, […] focal point height.

Turning to `COc1ccnc2c3c(ccc12)-c1cc(C(F)(F)F)ccc1S(=O)(=O)N3` [Example 109, 1-Methoxy-9-trifluoromethyl-5H-6-thia-4,5-diaza-chrysene 6,6-dioxide], the IC50 was found to be 979 nM. Under `O=S1(=O)Nc2c(ccc3cccnc23)CN1c1ccccc1` [Example 113, 2-Phenyl-1,4-dihydro-2H-3-thia-2,4,5-triaza-phenanthrene 3,3-dioxide] stands 460 nM. Next, `O=S1(=O)NCc2ccc3cccnc3c2N1` [Example 114, 1,4-Dihydro-2H-3-thia-2,4,5-triaza-phenanthrene 3,3-dioxide]: 39500 nM; `CN1C(c2ccccc2)c2ccc3cccnc3c2NS1(=O)=O` (stereo not shown) [Example 115, 2-Methyl-1-phenyl-1,4-dihydro-2H-3-thia-2,4,5-triaza-phenanthrene 3,3-dioxide]: 870 nM; `N#Cc1ccc(S(=O)(=O)Nc2cccc3cccnc23)cn1` [Example 116, 6-Cyano-pyridine-3-sulfonic acid quinolin-8-ylamide]: 4260 nM. Next, `Cc1ccc(S(=O)(=O)Nc2cccc3cccnc23)nc1` [Example 227, 5-Methyl-pyridine-2-sulfonic acid quinolin-8-ylamide]: 380 nM; `Cc1cccc(S(=O)(=O)Nc2cccc3cccnc23)n1` [Example 228, 6-Methyl-pyridine-2-sulfonic acid quinolin-8-ylamide]: 15400 nM. As to `O=S(=O)(Nc1cccc2cccnc12)c1cncc(C(F)(F)F)c1` [Example 229, 5-Trifluoromethyl-pyridine-3-sulfonic acid quinolin-8-ylamide], the midpoint of inhibition, the IC50, lay at 3980 nM.

Take `O=S(=O)(Nc1cccc2cccnc12)c1cnccn1` [Example 230, Pyrazine-2-sulfonic acid quinolin-8-ylamide]: the IC50 was 1910 nM. Under `O=S(=O)(Nc1cccc2cccnc12)c1nccs1` [Example 231, Thiazole-2-sulfonic acid quinolin-8-ylamide] stands 4580 nM; under `O=S(=O)(Nc1cc(OC(F)(F)F)cc2cccnc12)c1ccc(C(F)(F)F)nc1` [Example 232, 6-Trifluoromethyl-pyridine-3-sulfonic acid (6-trifluoromethoxy-quinolin-8-yl)-amide], 12500 nM.

`O=S(=O)(Nc1ccc(C(F)(F)F)c2cccnc12)c1ccccn1` [Example 234, Pyridine-2-sulfonic acid (5-trifluoromethyl-quinolin-8-yl)-amide] displayed an IC50 of 460 nM. Under `O=S(=O)(Nc1cc(OC(F)(F)F)cc2cccnc12)c1ccccn1` [Example 235, Pyridine-2-sulfonic acid (6-trifluoromethoxy-quinolin-8-yl)-amide] stands 1090 nM; under `O=S(=O)(Nc1cc(F)cc2cccnc12)c1ccccn1` [Example 236, Pyridine-2-sulfonic acid (6-fluoro-quinolin-8-yl)-amide], 2370 nM; under `O=S(=O)(Nc1cc(OC(F)(F)F)cc2cccnc12)c1cccnc1` [Example 237, Pyridine-3-sulfonic acid (6-trifluoromethoxy-quinolin-8-yl)-amide], 3840 nM. Under `N#Cc1ccc(S(=O)(=O)Nc2cc(OC(F)(F)F)cc3cccnc23)cn1` [Example 238, 6-Cyano-pyridine-3-sulfonic acid (6-trifluoromethoxy-quinolin-8-yl)-amide] stands 2110 nM; under `N#Cc1ccc(S(=O)(=O)Nc2cc(F)cc3cccnc23)cn1` [Example 239, 6-Cyano-pyridine-3-sulfonic acid (6-fluoro-quinolin-8-yl)-amide], 3750 nM. `N#Cc1ccc(S(=O)(=O)Nc2ccc(C(F)(F)F)c3cccnc23)cn1` [Example 240, 6-Cyano-pyridine-3-sulfonic acid (5-trifluoromethyl-quinolin-8-yl)-amide] displayed an IC50 of 2600 nM. Under `O=S1(=O)Nc2c(ccc3c(Cl)ccnc23)-c2ccccc21` [Example 305, 1-Chloro-5H-6-thia-4,5-diaza-chrysene 6,6-dioxide] stands 12500 nM; under `O=S1(=O)Nc2c(cc(F)c3cccnc23)-c2cc(C(F)(F)F)ccc21` [Example 306, 12-Fluoro-9-trifluoromethyl-5H-6-thia-4,5-diaza-chrysene 6,6-dioxide], 4190 nM. Next, `COC(=O)c1ccc2c(c1)-c1ccc3cccnc3c1NS2(=O)=O` [Example 307, 6,6-Dioxo-5,6-dihydro-6λ*6*-thia-4,5-diaza-chrysene-9-carboxylic acid methyl ester]: 4180 nM; `N#Cc1ccc2c(c1)-c1ccc3cccnc3c1NS2(=O)=O` [Example 308, 6,6-Dioxo-5,6-dihydro-6λ*6*-thia-4,5-diaza-chrysene-9-carbonitrile]: 2830 nM; `O=S1(=O)Nc2c(cc(C(F)(F)F)c3cccnc23)-c2ccccc21` [Example 311, 12-Trifluoromethyl-5H-6-thia-4,5-diaza-chrysene 6,6-dioxide]: 14100 nM. Compound `O=S1(=O)Nc2c(cc(C(F)(F)F)c3cccnc23)-c2cc(Cl)ccc21` [Example 312, 9-Chloro-12-trifluoromethyl-5H-6-thia-4,5-diaza-chrysene 6,6-dioxide] gave a 50% inhibitory concentration (IC50) of 8510 nM. This IC50 lies about 1.7-fold lower than the previous one.

`O=S1(=O)Nc2c(ccc3cccnc23)-c2cccnc21` [Example 318, 11H-12-Thia-1,10,11-triaza-chrysene 12,12-dioxide] registered an IC50 of 6150 nM. Next, `COC(=O)c1ccnc2c3c(ccc12)-c1ccccc1S(=O)(=O)N3` [Example 319, 6,6-Dioxo-5,6-dihydro-6λ*6*-thia-4,5-diaza-chrysene-1-carboxylic acid methyl ester]: 2940 nM; `O=S1(=O)Nc2c(c(F)cc3cccnc23)-c2ccccc21` [Example 323, 11-Fluoro-5H-6-thia-4,5-diaza-chrysene 6,6-dioxide]: 3570 nM; `O=S1(=O)Nc2c(cc(F)c3cccnc23)-c2ccccc21` [Example 324, 12-Fluoro-5H-6-thia-4,5-diaza-chrysene 6,6-dioxide]: 1390 nM. Next, `O=S1(=O)Nc2c(ccc3cccnc23)-c2cc(Cl)ccc21` [Example 325, 9-Chloro-5H-6-thia-4,5-diaza-chrysene 6,6-dioxide]: 770 nM; `COc1ccc2c(c1)S(=O)(=O)Nc1c-2ccc2cccnc12` [Example 326, 8-Methoxy-5H-6-thia-4,5-diaza-chrysene 6,6-dioxide]: 2110 nM; `Cc1ccc2c(c1)-c1ccc3cccnc3c1NS2(=O)=O` [Example 327, 9-Methyl-5H-6-thia-4,5-diaza-chrysene 6,6-dioxide]: 3200 nM. Under `O=S1(=O)Nc2c(cc(Cl)c3cccnc23)-c2ccccc21` [Example 328, 12-Chloro-5H-6-thia-4,5-diaza-chrysene 6,6-dioxide] stands 320 nM. With `Cc1ccc2c(c1)S(=O)(=O)Nc1c-2ccc2cccnc12` [Example 329, 8-Methyl-5H-6-thia-4,5-diaza-chrysene 6,6-dioxide], the IC50 was 360 nM. In turn, `O=S1(=O)Nc2c(ccc3cccnc23)-c2ccc(F)cc21` [Example 330, 8-Fluoro-5H-6-thia-4,5-diaza-chrysene 6,6-dioxide] came in with an IC50 of 1620 nM.

As a reminder, the IC50 is the midpoint of a concentration-inhibition curve. High values mean weaker potency in that assay, low ones greater potency in that assay.
